For test [1], the target named is T1, human FLT3 protein (FLT3 (WT)) (Homo sapiens, UniProt P36888).
T1 construct: human FLT3 protein (intracellular region, 564 to 993 aa); GST; purchased Carna Biosciences; host or cells: baculovirus expression system
T1 sequence (P36888 564-993): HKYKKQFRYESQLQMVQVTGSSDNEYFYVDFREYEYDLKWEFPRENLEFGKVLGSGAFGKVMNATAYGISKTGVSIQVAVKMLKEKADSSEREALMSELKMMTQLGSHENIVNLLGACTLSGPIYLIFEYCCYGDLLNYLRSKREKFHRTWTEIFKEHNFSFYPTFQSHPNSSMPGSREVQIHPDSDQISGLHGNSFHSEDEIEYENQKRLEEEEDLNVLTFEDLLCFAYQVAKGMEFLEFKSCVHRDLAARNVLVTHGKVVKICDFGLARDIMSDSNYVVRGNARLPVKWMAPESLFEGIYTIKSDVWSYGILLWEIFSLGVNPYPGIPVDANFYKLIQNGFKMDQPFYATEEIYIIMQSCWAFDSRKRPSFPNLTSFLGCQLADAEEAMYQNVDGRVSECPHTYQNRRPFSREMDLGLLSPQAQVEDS
The test is described as follows: FLT3 inhibition test (FLT3 enzyme inhibition, time-resolved fluorescence of substrate peptide phosphorylation). Conditions: read-out: FLT3 (WT) enzyme inhibition activity. Type of test: biochemical. A digest of the protocol: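 Substrate peptide phosphorylation detected by time-resolved fluorescence after a 30 min kinase reaction at 25° C with 50 μM ATP (final). Beforehand, compound and FLT3 (WT, 1.2 μg) stood 15 min at 25° C in HEPES buffer pH 7.5 containing MgCl2, NaCl, BSA and DTT.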

In another test the test system is MV4-11 cells. As to the kind of experiment: Leukemia cell proliferation inhibition test (ATPlite), MV4-11. In kind it is cell-based. As to conditions: Homo sapiens, read-out: MV4-11 cell proliferation inhibition effect. In short, it runs like this:
(§1)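 Luminescent ATP read-out (firefly luciferase) used as a total cell count after 72 h compound exposure at 37° C, 5% CO2. Cells: 10,000/well in RPMI + 10% FBS. GI50 = 50% inhibition relative to 0.1% DMSO, from a sigmoid dose-response fit; duplicates.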
(In general: In ATP-based viability assays light output follows the ATP content of the culture.)

Another test concerns Molm-13 cells. As to the kind of experiment: Leukemia cell proliferation inhibition test (ATPlite), Molm-13. In kind it is cell-based. Conditions: Homo sapiens, read-out: MOLM13 cell proliferation inhibition effect. In short, it runs like this:
as §1

Setting [2] is: GST-fused human FLT3 (564 to 993 aa), ATP 50 μM.
The mark [3] stands for this setting: MV4-11, 72 h, MV4-11, 72 hours culture, ATPlite, GI50 per method.
The mark [4] stands for this setting: MOLM-13, 72 h, Molm-13, 72 hours culture, ATPlite, GI50 per method.

The record followed here is US9145415B2, “Nitrogen-containing heterocyclic compound or salt thereof” (FUJIFILM Corporation, priority 2012, dated 2015).

Each structure is given as a SMILES string. Where two headings read alike, the source gives them in different places. Bounds are passed on as bounds.

`CCCNc1nc(Nc2ccc3c(cnn3C)c2)ncc1C#CCCCNC(=O)[C@@H]1CCCN1C(=O)/C=C/CN(C)C` [Compound 22-31, (S,E)-1-(4-(Dimethylamino)-2-butenoyl)-N-(5-(2-((1-methyl-1H-indazol-5-yl)amino)-4-(propylamino)pyrimidin-5-yl)-4-pentyn-1-yl)pyrrolidine-2-carboxamide]: the IC50 is less than 10 nM in test [1] (FLT3 (WT)); less than 10 nM in the test with MV4-11 cells (MV4-11, MV4-11 cell); less than 10 nM with Molm-13 cells (MOLM-13, MOLM13 cell).

Turning to `CCCNc1nc(Nc2ccc(C(N)=O)cc2)ncc1C(=O)Nc1cccc(NC(=O)[C@H](C)N(C)C(=O)/C=C/CN2CCNCC2)c1` [Compound 4-1, (S,E)-2-((4-carbamoylphenyl)amino)-N-(3-(2-(N-methyl-4-(piperazin-1-yl)-2-butenamido)propanamido)phenyl)-4-(propylamino)pyrimidine-5-carboxamide], the values for the IC50 (in test [1] (setting [2]); with MV4-11 cells (setting [3]); in the test with Molm-13 cells (setting [4])) were less than 10 nM, 10 to 100 nM and 10 to 100 nM, respectively.

Take `CCCNc1nc(Nc2ccc(C#N)cc2)ncc1C#CCCCNC(C)(C)CN(C)C(=O)/C=C/CN(C)C` [Compound 8-11]: the IC50 (in test [1] (setting [2]); in the test on MV4-11 cells (setting [3]); in the test on Molm-13 cells (setting [4])) was less than 10 nM throughout.

For `C=CC(=O)N(C)[C@@H](C)C(=O)NCCCC#Cc1cnc(Nc2cccc(C#N)c2)nc1N1CCOCC1` [Compound 9-4], the IC50 in test [1] (setting [2]) was less than 10 nM; with MV4-11 cells (setting [3]) it was 10 to 100 nM; in the test with Molm-13 cells (setting [4]), 10 to 100 nM.

As to `CCCNc1nc(Nc2ccc(C#N)cc2)ncc1C#CCCCNC(=O)CN(CC)C(=O)/C=C/CN(C)C` [Compound 7-39], the IC50 (in test [1] (setting [2]); with MV4-11 cells (setting [3]); in the test on Molm-13 cells (setting [4])) was less than 10 nM in each case.

On to `CC(C)CN(C)c1nc(Nc2ccc(C#N)cc2)ncc1C#CCCCNC(=O)[C@H](C)N(C)C(=O)/C=C/CN(C)C` [Compound 10-15], for which the IC50 (in test [1] (setting [2]); in the test with MV4-11 cells (setting [3]); in the test with Molm-13 cells (setting [4])) was less than 10 nM in each case.

On to `CCCNc1nc(Nc2ccc3c(cnn3C)c2)ncc1C#CCCCNC(=O)[C@H](C)N(C)C(=O)/C=C/CN(C)C` [Compound 21-6], for which the IC50 (in test [1] (setting [2]); with MV4-11 cells (setting [3]); with Molm-13 cells (setting [4])) was less than 10 nM each time.

On to `CCCNc1nc(Nc2ccc(C(N)=O)cc2)ncc1C(=O)Nc1cccc(NC(=O)[C@H](C)N(C)C(=O)/C=C/CN(C(C)C)C(C)C)c1` [Compound 4-7], for which the IC50 (in test [1] (setting [2]); in the test on MV4-11 cells (setting [3]); in the test with Molm-13 cells (setting [4])) was less than 10 nM in each case.

As for `CCCNc1nc(Nc2ccnc(F)c2)ncc1C#C[C@H]1C[C@@H](NC(=O)[C@H](C)N(C)C(=O)/C=C/CN(C)C)C1` (relative stereo) [Compound 14-4, (E)-4-(Dimethylamino)-N—((S)-1-(((1S*,3R*)-3-((2-((2-fluoropyridin-4-yl)amino)-4-(propylamino)pyrimidin-5-yl)ethynyl)cyclobutyl)amino)-1-oxopropan-2-yl)-N-methyl-2-butenamide], the IC50 (in test [1] (setting [2]); in the test on MV4-11 cells (setting [3]); in the test with Molm-13 cells (setting [4])) was less than 10 nM in each case.

On to `COCCNc1nc(Nc2cccc(C#N)c2)ncc1C#C[C@@H]1CCC[C@H](NC(=O)[C@H](C)N(C)C(=O)/C=C/CN(C)C)C1` [Compound 22-38], for which the IC50 was less than 10 nM in test [1] (FLT3 (WT)); less than 10 nM in the test on MV4-11 cells (MV4-11, MV4-11 cell); less than 10 nM in the test with Molm-13 cells (MOLM-13, MOLM13 cell).

With `CNc1nc(Nc2ccc(F)cc2)ncc1C#CCCCNC(=O)[C@@H]1C[C@H](F)CN1C(=O)/C=C/CN(C)C` [Compound 7-80, (2S,4S)-1-((E)-4-(Dimethylamino)-2-butenoyl)-4-fluoro-N-(5-(2-((4-fluorophenyl)amino)-4-(methylamino)pyrimidin-5-yl)-4-pentyn-1-yl)pyrrolidine-2-carboxamide], the IC50 (in test [1] (setting [2]); with MV4-11 cells (setting [3]); in the test with Molm-13 cells (setting [4])) was less than 10 nM throughout.

`CC(C)CNc1nc(Nc2ccc(C#N)cc2)ncc1C#CCCCNC(=O)[C@H](C)N(C)C(=O)/C=C/CN(C)C` [Compound 10-24]: the IC50 (in test [1] (setting [2]); in the test on MV4-11 cells (setting [3]); in the test on Molm-13 cells (setting [4])) was less than 10 nM throughout.

As for `CNc1nc(Nc2ccc(C#N)cc2)ncc1C#CCCCNC(=O)[C@@H]1CCCN1C(=O)/C=C/CN(C)C` [Compound 21-45], the IC50 is less than 10 nM in test [1] (FLT3 (WT)); less than 10 nM in the test on MV4-11 cells (MV4-11, MV4-11 cell); less than 10 nM in the test with Molm-13 cells (MOLM-13, MOLM13 cell).

In the case of `CCCNc1nc(Nc2cccc(F)c2)ncc1C#CC(C)(C)CCNC(=O)[C@H](C)N(C)C(=O)/C=C/CN(C)C` [Compound 7-28], the IC50 (in test [1] (setting [2]); in the test on MV4-11 cells (setting [3]); with Molm-13 cells (setting [4])) was less than 10 nM in each case.

Consider `CC[C@@H](C(=O)NCCCC#Cc1cnc(Nc2ccc(F)nc2)nc1Nc1ccc(OC)cc1)N(C)C(=O)/C=C/CN(C)C` [Compound 10-37], for which the IC50 (in test [1] (setting [2]); in the test with MV4-11 cells (setting [3]); in the test on Molm-13 cells (setting [4])) was less than 10 nM throughout.

On to `CCCNc1nc(Nc2ccc(C(F)(F)F)cc2)ncc1C#CCCCNC(=O)[C@H](C)N(C)C(=O)/C=C/CN(C)C` [Compound 12-5], for which the figures for the IC50 (in test [1] (setting [2]); with MV4-11 cells (setting [3]); in the test on Molm-13 cells (setting [4])) were less than 10 nM, 10 to 100 nM and 10 to 100 nM, respectively.

Take `CNc1nc(Nc2ccc(F)cc2)ncc1C#CCCCNC(=O)[C@@H]1C[C@H](O)CN1C(=O)/C=C/CN(C)C` [Compound 7-84]: the IC50 (in test [1] (setting [2]); with MV4-11 cells (setting [3]); with Molm-13 cells (setting [4])) was less than 10 nM throughout.

As to `C=CC(=O)N(C)CC(=O)NC(CC)CCNC(=O)c1cnc(NCCc2ccncc2)nc1NCCC` (stereo not drawn) [Compound 1-7], the IC50 in test [1] (setting [2]) is less than 10 nM; with MV4-11 cells (setting [3]) it was 10 to 100 nM; in the test on Molm-13 cells (setting [4]), less than 10 nM.

`CCCN(C)c1nc(NCCc2ccncc2)ncc1C#Cc1cccc(NC(=O)[C@H](C)N(C)C(=O)/C=C/CN(C)C)c1` [Compound 12-14, (S,E)-4-(dimethylamino)-N-methyl-N-(1-((3-((4-(methyl(propyl)amino)-2-((2-(pyridin-4-yl)ethyl)amino)pyrimidin-5-yl)ethynyl)phenyl)amino)-1-oxopropan-2-yl)-2-butenamide]: the IC50 (in test [1] (setting [2]); in the test with MV4-11 cells (setting [3]); in the test with Molm-13 cells (setting [4])) was less than 10 nM in each case.

As to `CCCNc1nc(NCCc2ccncc2)ncc1C(=O)Nc1cccc(NC(=O)CNC(=O)/C=C/CN(C)C)c1` [Compound 2-9], the IC50 (in test [1] (setting [2]); in the test on MV4-11 cells (setting [3]); in the test on Molm-13 cells (setting [4])) was less than 10 nM each time.

Take `CCCNc1nc(Nc2ccc(C#N)cc2)ncc1C#CCCCNC(=O)CNC(=O)/C=C/CN(C)C` [Compound 7-57]: the IC50 (in test [1] (setting [2]); in the test with MV4-11 cells (setting [3]); in the test on Molm-13 cells (setting [4])) was less than 10 nM throughout.

`CCCNc1nc(Nc2ccc3nnccc3c2)ncc1C(=O)Nc1cccc(NC(=O)[C@H](C)N(C)C(=O)/C=C/CN(C)C)c1` [Compound 6-11, (S,E)-2-(Cinnolin-6-ylamino)-N-(3-(2-(4-(dimethylamino)-N-methyl-2-butenamido)propanamido)phenyl)-4-(propylamino)pyrimidine-5-carboxamide]: the IC50 (in test [1] (setting [2]); in the test on MV4-11 cells (setting [3]); in the test on Molm-13 cells (setting [4])) was less than 10 nM in each case.

Consider `CCCNc1nc(Nc2ccc(C(N)=O)cc2)ncc1C(=O)NCCCNC(=O)[C@H](C)N(C)C(=O)/C=C/CN(C)C` [Compound 5-1, (S,E)-2-((4-carbamoylphenyl)amino)-N-(3-(2-(4-(dimethylamino)-N-methyl-2-butenamido)propaneamido)propyl)-4-(propylamino)pyrimidine-5-carboxamide], for which the IC50 (in test [1] (setting [2]); in the test on MV4-11 cells (setting [3]); in the test with Molm-13 cells (setting [4])) was less than 10 nM in each case.

`C[C@@H](C(=O)NCCCC#Cc1cnc(Nc2cccc(F)c2)nc1NC1=CC2C=CC=NC2C=C1)N(C)C(=O)/C=C/CN(C)C` (stereo partly drawn) [Compound 7-7]: the IC50 (in test [1] (setting [2]); in the test with MV4-11 cells (setting [3]); in the test on Molm-13 cells (setting [4])) was less than 10 nM each time.

Turning to `CCCNc1nc(Nc2nnc(C)s2)ncc1C#CCCCNC(=O)[C@H](C)N(C)C(=O)/C=C/CN(C)C` [Compound 9-40], the IC50 (in test [1] (setting [2]); in the test with MV4-11 cells (setting [3]); in the test on Molm-13 cells (setting [4])) was 10 to 100 nM each time.

For `CCCNc1nc(Nc2cccc(F)c2)ncc1-c1cc(CCNC(=O)[C@H](C)N(C)C(=O)/C=C/CN(C)C)no1` [Compound 17-1, (S,E)-4-(dimethylamino)-N-(1-((2-(5-(2-((3-fluorophenyl)amino)-4-(propylamino)pyrimidin-5-yl)isoxazol-3-yl)ethyl)amino)-1-oxopropan-2-yl)-N-methyl-2-butenamide], the IC50 (in test [1] (setting [2]); in the test with MV4-11 cells (setting [3]); in the test with Molm-13 cells (setting [4])) was less than 10 nM each time.
